Test results published in patent US20150051206A1, “COMPOUNDS AND COMPOSITIONS AS C-KIT KINASE INHIBITORS” (IRM LLC, priority 2011, published 2015).

The compounds below were run against T1, c-kit (Homo sapiens, UniProt P10721) (assay: Mo7e cell proliferation assay (SCF dependent proliferation)). Settings: Table 2; Mo7e cells stimulated with human recombinant SCF, 48 hours; 1% FBS.
T1 construct: human Mo7e cells which endogenously express c-kit; endogenous in cells; host or cells: human Mo7e cells (promegakaryocytic leukemia line), stimulated with human recombinant SCF
T1 sequence (P10721 26-976): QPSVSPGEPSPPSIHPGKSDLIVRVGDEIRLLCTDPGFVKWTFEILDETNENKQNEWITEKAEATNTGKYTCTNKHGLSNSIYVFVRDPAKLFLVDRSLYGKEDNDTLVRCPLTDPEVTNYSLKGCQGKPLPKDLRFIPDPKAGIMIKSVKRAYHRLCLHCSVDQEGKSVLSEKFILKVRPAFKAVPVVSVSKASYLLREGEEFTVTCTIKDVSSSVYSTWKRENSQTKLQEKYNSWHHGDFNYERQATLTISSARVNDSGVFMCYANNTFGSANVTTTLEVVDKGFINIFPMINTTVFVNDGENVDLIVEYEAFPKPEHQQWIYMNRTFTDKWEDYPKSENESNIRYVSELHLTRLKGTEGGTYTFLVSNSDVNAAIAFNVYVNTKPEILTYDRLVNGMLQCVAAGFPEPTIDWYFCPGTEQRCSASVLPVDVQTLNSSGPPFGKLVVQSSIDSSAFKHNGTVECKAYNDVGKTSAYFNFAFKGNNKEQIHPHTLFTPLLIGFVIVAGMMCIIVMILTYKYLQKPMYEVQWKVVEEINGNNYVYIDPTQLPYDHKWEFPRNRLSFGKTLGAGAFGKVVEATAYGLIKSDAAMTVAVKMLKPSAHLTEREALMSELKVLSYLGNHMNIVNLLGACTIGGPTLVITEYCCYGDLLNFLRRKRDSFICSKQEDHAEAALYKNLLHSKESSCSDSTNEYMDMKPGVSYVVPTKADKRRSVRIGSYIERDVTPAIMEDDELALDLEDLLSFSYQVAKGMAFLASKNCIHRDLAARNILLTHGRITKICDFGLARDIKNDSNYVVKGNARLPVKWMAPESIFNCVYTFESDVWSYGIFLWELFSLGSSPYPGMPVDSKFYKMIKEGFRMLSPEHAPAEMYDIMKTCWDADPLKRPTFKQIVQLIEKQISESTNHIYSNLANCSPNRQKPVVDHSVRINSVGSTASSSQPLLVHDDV
Type: cell-based
Method: Compounds of Formula (I) and Formula (II) provided herein were assayed to measure their capacity to inhibit c-kit and PDGFR kinases using the appropriate assay described below: c-Kit inhibition was evaluated using the Mo7e cell proliferation assay, and PDGFR inhibition was evaluated using the Rat A10 cell proliferation assay and the Human TG/HA-VSMC cell proliferation assay.
The compounds of Table 1 and Table 2 were tested for inhibition of SCF dependent proliferation using human Mo7e cells which endogenously express c-kit in a 384 well format. […] After 48 hours of incubation at 37° C., cell viability was measured by adding 25 uL of CellTiter Glo (Promega) to the cells and the luminescence was measured by a CLIPR CCD camera (Molecular Devices).
The IC50 value is given as that concentration of the test compound in question that provoke a response halfway between the baseline and maximum responses.
`COc1cccc(F)c1-c1noc(-c2ccc(C)c(NC(=O)c3cnc4ccccn34)c2)n1` [F40, N-{5-[3-(2-fluoro-6-methoxyphenyl)-1,2,4-oxadiazol-5-yl]-2-methylphenyl}imidazo[1,2-a]pyridine-3-carboxamide] showed an IC50 of 596 nM. Work on `Cc1ccc(-c2noc(-c3ccccn3)n2)cc1NC(=O)c1cnc2ccccn12` [F42, N-{2-methyl-5-[5-(pyridin-2-yl)-1,2,4-oxadiazol-3-yl]phenyl}imidazo[1,2-a]pyridine-3-carboxamide] yielded an IC50 of 105 nM. Compound `Cc1ccc(-c2nc(-c3ccccc3)no2)cc1NC(=O)c1cnc2ccccn12` [F46, N-[2-methyl-5-(3-phenyl-1,2,4-oxadiazol-5-yl)phenyl]imidazo[1,2-a]pyridine-3-carboxamide] has an IC50 of 101 nM. `Cc1ccc(-c2noc(-c3nccn3C)n2)cc1NC(=O)c1cnc2ccccn12` [F49, N-{2-methyl-5-[5-(1-methyl-1H-imidazol-2-yl)-1,2,4-oxadiazol-3-yl]phenyl}imidazo[1,2-a]pyridine-3-carboxamide] was tested, and the IC50 was 232 nM. `Cc1ccc(-c2noc(-c3ccccc3N3CCN(C)CC3)n2)cc1NC(=O)c1cnc2ccccn12` [F52, N-(2-methyl-5-{5-[2-(4-methylpiperazin-1-yl)phenyl]-1,2,4-oxadiazol-3-yl}phenyl)imidazo[1,2-a]pyridine-3-carboxamide] showed an IC50 of 433 nM. For `Cc1ccc(-c2noc(-c3cccc(N4CCN(C)CC4)c3)n2)cc1NC(=O)c1cnc2ccccn12` [F53, N-(2-methyl-5-{5-[3-(4-methylpiperazin-1-yl)phenyl]-1,2,4-oxadiazol-3-yl}phenyl)imidazo[1,2-a]pyridine-3-carboxamide], the IC50 was 101 nM. Compound `Cc1ccc(-c2noc(-c3ccc(N4CCN(C)CC4)cc3)n2)cc1NC(=O)c1cnc2ccccn12` [F54, N-(2-methyl-5-{5-[4-(4-methylpiperazin-1-yl)phenyl]-1,2,4-oxadiazol-3-yl}phenyl)imidazo[1,2-a]pyridine-3-carboxamide] has an IC50 of 370 nM. `Cc1ccc(-c2noc(CCc3nccn3C)n2)cc1NC(=O)c1cnc2ccccn12` [F56, N-(2-methyl-5-{5-[2-(1-methyl-1H-imidazol-2-yl)ethyl]-1,2,4-oxadiazol-3-yl}phenyl)imidazo[1,2-a]pyridine-3-carboxamide] was tested, and the IC50 was 340 nM. Work on `Cc1ccc(-c2noc(CCn3ccnc3)n2)cc1NC(=O)c1cnc2ccccn12` [F57, N-(5-{5-[2-(1H-imidazol-1-yl)ethyl]-1,2,4-oxadiazol-3-yl}-2-methylphenyl)imidazo[1,2-a]pyridine-3-carboxamide] yielded an IC50 of 337 nM. With `Cc1ccc(-c2noc(CCn3cncn3)n2)cc1NC(=O)c1cnc2ccccn12` [F58, N-(2-methyl-5-{5-[2-(1H-1,2,4-triazol-1-yl)ethyl]-1,2,4-oxadiazol-3-yl}phenyl)imidazo[1,2-a]pyridine-3-carboxamide] the IC50 was 135 nM. For `Cc1ccc(-c2noc(Cn3cnnn3)n2)cc1NC(=O)c1cnc2ccccn12` [F59, N-{2-methyl-5-[5-(1H-1,2,3,4-tetrazol-1-ylmethyl)-1,2,4-oxadiazol-3-yl]phenyl}imidazo[1,2-a]pyridine-3-carboxamide], the IC50 was 646 nM. In the case of `Cc1ccc(-c2noc(Cn3ccnc3C)n2)cc1NC(=O)c1cnc2ccccn12` [F60, N-(2-methyl-5-{5-[(2-methyl-1H-imidazol-1-yl)methyl]-1,2,4-oxadiazol-3-yl}phenyl)imidazo[1,2-a]pyridine-3-carboxamide], the IC50 is reported as 445 nM. With `Cc1ccc(-c2noc(Cn3ccnc3)n2)cc1NC(=O)c1cnc2ccccn12` [F61, N-{5-[5-(1H-imidazol-1-ylmethyl)-1,2,4-oxadiazol-3-yl]-2-methylphenyl}imidazo[1,2-a]pyridine-3-carboxamide] the IC50 was 280 nM. For `Cc1ccc(-c2noc(Cn3cncn3)n2)cc1NC(=O)c1cnc2ccccn12` [F63, N-{2-methyl-5-[5-(1H-1,2,4-triazol-1-ylmethyl)-1,2,4-oxadiazol-3-yl]phenyl}imidazo[1,2-a]pyridine-3-carboxamide], the IC50 was 269 nM. Compound `Cc1ccc(Nc2noc(-c3cccnn3)n2)cc1NC(=O)c1cnc2ccccn12` [F64, N-(2-methyl-5-{[5-(pyridazin-3-yl)-1,2,4-oxadiazol-3-yl]amino}phenyl)imidazo[1,2-a]pyridine-3-carboxamide] has an IC50 of 115 nM.

Same assay, conditions: Table 2; Mo7e cells stimulated with human recombinant SCF, 48 hours; 20% FBS instead of 1% FBS (values marked *)
For `Cc1ccc(-c2nc(-c3cccc(F)c3)no2)cc1NC(=O)c1cnc2ccccn12` [F36, N-{5-[3-(3-fluorophenyl)-1,2,4-oxadiazol-5-yl]-2-methylphenyl}imidazo[1,2-a]pyridine-3-carboxamide], the IC50 was 173 nM. In the case of `Cc1ccc(-c2nc(-c3cccnc3OCC(F)(F)F)no2)cc1NC(=O)c1cnc2ccccn12` [F38, N-(2-methyl-5-{3-[2-(2,2,2-trifluoroethoxy)pyridin-3-yl]-1,2,4-oxadiazol-5-yl}phenyl)imidazo[1,2-a]pyridine-3-carboxamide], the IC50 is reported as 192 nM. With `Cc1ccc(F)c(-c2noc(-c3ccc(C)c(NC(=O)c4cnc5ccccn45)c3)n2)c1` [F39, N-{5-[3-(2-fluoro-5-methylphenyl)-1,2,4-oxadiazol-5-yl]-2-methylphenyl}imidazo[1,2-a]pyridine-3-carboxamide] the IC50 was 104 nM. `Cc1ccc(-c2nc(Cc3ccccc3OC(F)(F)F)no2)cc1NC(=O)c1cnc2ccccn12` [F43, N-[2-methyl-5-(3-{[2-(trifluoromethoxy)phenyl]methyl}-1,2,4-oxadiazol-5-yl)phenyl]imidazo[1,2-a]pyridine-3-carboxamide] was tested, and the IC50 was 289 nM. For `Cc1ccc(-c2nc(-c3cccnc3Cl)no2)cc1NC(=O)c1cnc2ccccn12` [F44, N-{5-[3-(2-chloropyridin-3-yl)-1,2,4-oxadiazol-5-yl]-2-methylphenyl}imidazo[1,2-a]pyridine-3-carboxamide], the IC50 was 236 nM. `COc1ccccc1Cc1noc(-c2ccc(C)c(NC(=O)c3cnc4ccccn34)c2)n1` [F45, N-(5-{3-[(2-methoxyphenyl)methyl]-1,2,4-oxadiazol-5-yl}-2-methylphenyl)imidazo[1,2-a]pyridine-3-carboxamide] showed an IC50 of 116 nM. In the case of `Cc1ccc(-c2noc(-c3ccccc3)n2)cc1NC(=O)c1cnc2ccccn12` [F47, N-[2-methyl-5-(5-phenyl-1,2,4-oxadiazol-3-yl)phenyl]imidazo[1,2-a]pyridine-3-carboxamide], the IC50 is reported as 196 nM. In the case of `Cc1ccc(-c2noc(-c3ncccn3)n2)cc1NC(=O)c1cnc2ccccn12` [F48, N-{2-methyl-5-[5-(pyrimidin-2-yl)-1,2,4-oxadiazol-3-yl]phenyl}imidazo[1,2-a]pyridine-3-carboxamide], the IC50 is reported as 815 nM. `Cc1ccc(-c2nc(-c3ccc(C)c(NC(=O)c4cnc5ccccn45)c3)no2)cn1` [F50, N-{2-methyl-5-[5-(6-methylpyridin-3-yl)-1,2,4-oxadiazol-3-yl]phenyl}imidazo[1,2-a]pyridine-3-carboxamide] showed an IC50 of 850 nM. In the case of `Cc1ccc(-c2noc(-c3ccccc3N3CCOCC3)n2)cc1NC(=O)c1cnc2ccccn12` [F51, N-(2-methyl-5-{5-[2-(morpholin-4-yl)phenyl]-1,2,4-oxadiazol-3-yl}phenyl)imidazo[1,2-a]pyridine-3-carboxamide], the IC50 is reported as 179 nM. `Cc1ccc(-c2noc(-c3cccc(N4CCOCC4)c3)n2)cc1NC(=O)c1cnc2ccccn12` [F55, N-(2-methyl-5-{5-[3-(morpholin-4-yl)phenyl]-1,2,4-oxadiazol-3-yl}phenyl)imidazo[1,2-a]pyridine-3-carboxamide] was tested, and the IC50 was 330 nM.
